Molecules are shown by their SMILES. Numbered stars: 1 amine (or outer) side, 2 acyl side, 3 side chain; on linkers, the order of the positions; unused ones are H or OH. Bridge positions count the residues as written; N and C are the ends. Square brackets hold non-standard residues; d marks the D form. Peptide text beside a SMILES is read from it. Trp(βS-Me,7-OMe) = COc1cccc2c([C@H](C)[C@H](N)C(=O)O)c[nH]c12; Phe(3R-OH) = O=C([C@@H](N[*:1])[C@H](O[*:3])c1ccccc1)[*:2]; Achc(cis-1,4) = O=C([C@H]1CC[C@@H](N[*:1])CC1)[*:2]; Trp(7-Cl) = N[C@@H](Cc1c[nH]c2c(Cl)cccc12)C(=O)O; X15 = C[C@H](c1ccc(O)cc1)[C@H](N[*:1])C(=O)[*:2]; Phe(4-CONH2) = NC(=O)c1ccc(C[C@H](N)C(=O)O)cc1; Phe(4-COOH) = N[C@@H](Cc1ccc(C(=O)O)cc1)C(=O)O; Trp(7-aza) = N[C@@H](Cc1c[nH]c2ncccc12)C(=O)O; Phe(4-CH2NH2) = NCc1ccc(C[C@H](N)C(=O)O)cc1; Ala(4-thiazolyl) = N[C@@H](Cc1cscn1)C(=O)O; Pip(5R-OH) = O=C(O)[C@@H]1CC[C@@H](O)CN1; X4 = O=C([C@H]1C=C[C@@H](N[*:1])C1)[*:2]; X1 = O=C([C@@H]1CC[C@H](N[*:1])C1)[*:2]; d(cisHyp) = O=C(O)[C@H]1C[C@@H](O)CN1; Pip(4-aza) = O=C(O)[C@@H]1CNCCN1; hPhe = N[C@@H](CCc1ccccc1)C(=O)O; 4Pal = N[C@@H](Cc1ccncc1)C(=O)O; NMeE = CN[C@@H](CCC(=O)O)C(=O)O; dHyp = O=C(O)[C@H]1C[C@H](O)CN1; Cit = NC(=O)NCCC[C@H](N)C(=O)O; αMeS = C[C@](N)(CO)C(=O)O; NMeA = CN[C@@H](C)C(=O)O; Nle = CCCC[C@H](N)C(=O)O; Sar = CNCC(=O)O A value given as a limit tells only on which side of the number the result lay.

Assay [1] concerns the target T1, human TNFR1 extracellular domain (ECD) protein (Homo sapiens, UniProt P19438).
T1 construct: HRV 3C protease cleavage site (C); 6His (C, cleaved yes); made in house; host or cells: Sf21 insect cells (baculovirus), secreted
T1 sequence (P19438 30-211): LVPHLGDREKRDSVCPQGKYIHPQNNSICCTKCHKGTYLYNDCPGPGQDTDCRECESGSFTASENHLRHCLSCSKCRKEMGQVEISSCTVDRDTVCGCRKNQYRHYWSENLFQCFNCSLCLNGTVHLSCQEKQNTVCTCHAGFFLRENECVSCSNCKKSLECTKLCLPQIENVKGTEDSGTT
The experiment in a line: SPR binding affinity to captured human TNFR1 ECD. The procedure, abridged:
(§1)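 Peptides are tested against captured biotin-tagged human TNFR1 ECD, with parallel TNFR2 ECD binding to check selectivity. Buffer: 10 mM HEPES pH 7.4, 150 mM NaCl, 3 mM EDTA, 0.05% P20, 2% DMSO.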
In general terms: Surface plasmon resonance follows binding to a sensor surface in real time, without labels.

For assay [2], the target named is T2, human soluble TNFR1 (sTNFR1) (Homo sapiens, UniProt P19438).
T2 construct: made in house; host or cells: Sf21 (baculovirus)
T2 sequence (P19438 with tags, fused parts or gaps): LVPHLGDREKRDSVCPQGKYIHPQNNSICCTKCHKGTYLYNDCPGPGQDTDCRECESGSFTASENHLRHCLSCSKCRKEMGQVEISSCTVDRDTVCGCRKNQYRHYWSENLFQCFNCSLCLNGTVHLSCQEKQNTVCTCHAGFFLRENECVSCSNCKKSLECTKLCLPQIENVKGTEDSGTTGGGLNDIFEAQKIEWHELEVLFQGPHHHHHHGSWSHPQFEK
The experiment in a line: Human sTNFR1-peptide displacement assay (LanthaScreen Eu TR-FRET binding assay). The procedure, abridged:
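Readout is the 665/615 nm TR-FRET ratio (Eu anti-His donor, streptavidin-Alexa647 acceptor), normalized to DMSO and saturating displacer, fit by Morrison-based five-parameter logistic for Kd^app. His-tagged sTNFR1 (1-211) prebound to 100 nM biotinylated peptide SEQ ID NO.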
(TR-FRET usually uses a lanthanide donor and a delayed reading to cut background.)

Another assay concerns the target T3, human TNFR2 ECD protein (Homo sapiens, UniProt P20333).
T3 construct: HRV 3C protease cleavage site (C); 6His (C, cleaved yes); made in house; host or cells: Sf21 insect cells (baculovirus), secreted
T3 sequence (P20333 23-257): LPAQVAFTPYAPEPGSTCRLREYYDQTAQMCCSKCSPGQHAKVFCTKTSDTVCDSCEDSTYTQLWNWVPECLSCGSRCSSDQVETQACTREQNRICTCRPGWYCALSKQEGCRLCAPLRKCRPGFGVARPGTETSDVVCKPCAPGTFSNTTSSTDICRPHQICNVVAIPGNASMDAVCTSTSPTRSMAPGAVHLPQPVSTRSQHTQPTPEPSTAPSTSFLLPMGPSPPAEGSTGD
In words: SPR off-target binding (selectivity) to human TNFR2 ECD. The procedure, abridged:
as §1

As a reminder, the Kd is a measure of binding affinity in units of concentration. Lower therefore signals higher affinity. For the molecule `CCCC[C@@H]1NC(=O)CSC[C@@H](C(N)=O)NC(=O)[C@H]([C@@H](C)c2c[nH]c3c(OC)cccc23)NC(=O)CN(C)C(=O)[C@H](Cc2ccc(O)cc2)NC(=O)[C@H](Cc2ccc(C(=O)O)cc2)NC(=O)[C@](C)(CO)NC(=O)[C@H](Cc2c[nH]c3c(Cl)cccc23)NC(=O)[C@H](Cc2ccncc2)NC(=O)[C@H](CC(N)=O)NC(=O)[C@H](CCC(=O)O)N(C)C(=O)[C@H](Cc2c[nH]c3ncccc23)NC(=O)[C@H](CO)NC(=O)[C@H]([C@H](C)c2ccc(O)cc2)NC1=O` [SEQ ID NO. 243] ({CH2CO}-[Nle][X15]S[Trp(7-aza)][NMeE]N[4Pal][Trp(7-Cl)][αMeS][Phe(4-COOH)]Y[Sar][Trp(βS-Me,7-OMe)]C-NH2; thioether N-14), the Kd in assay [1] is 0.06 nM; in assay [2], 0.49 nM; on human TNFR2 ECD protein it was more than 1000 nM.
Broadly, the IC50 is the point on the concentration scale where inhibition reaches its midpoint. Regarding `CCCC[C@@H]1NC(=O)[C@H]2CC[C@H](CC2)NC(=O)[C@H]([C@@H](C)c2c[nH]c3c(OC)cccc23)NC(=O)CN(C)C(=O)[C@H](Cc2ccc(O)cc2)NC(=O)[C@H](Cc2ccc(C(=O)O)cc2)NC(=O)[C@](C)(CO)NC(=O)[C@H](Cc2c[nH]c3c(Cl)cccc23)NC(=O)[C@H](Cc2ccncc2)NC(=O)[C@H](CC(N)=O)NC(=O)[C@H](CCC(=O)O)N(C)C(=O)[C@H](Cc2c[nH]c3ccccc23)NC(=O)[C@H](CO)NC(=O)[C@H](Cc2ccc(CN)cc2)NC1=O` [SEQ ID NO. 244] (cyclo([4Pal][Trp(7-Cl)][αMeS][Phe(4-COOH)]Y[Sar][Trp(βS-Me,7-OMe)][Achc(cis-1,4)][Nle][Phe(4-CH2NH2)]SW[NMeE]N)), the figures for the Kd (in assay [1]; in assay [2]; on human TNFR2 ECD protein) were 0.09 nM, 0.96 nM and more than 1000 nM, respectively. In assay [2], the IC50 is 0.49 nM.
In the case of `CCCC[C@@H]1NC(=O)[C@@H]2CC[C@@H](C2)NC(=O)[C@H]([C@@H](C)c2c[nH]c3c(OC)cccc23)NC(=O)CN(C)C(=O)[C@H](Cc2ccc(C(=O)O)cc2)NC(=O)[C@H](Cc2ccc(C(N)=O)cc2)NC(=O)[C@](C)(CO)NC(=O)[C@H](Cc2c[nH]c3c(Cl)cccc23)NC(=O)[C@H](Cc2ccc(C(=O)O)cc2)NC(=O)[C@H](CC(N)=O)NC(=O)[C@H]2C[C@H](O)CN2C(=O)[C@H](Cc2c[nH]c3ccccc23)NC(=O)[C@@H]2CC[C@@H](O)CN2C(=O)[C@H](Cc2ccncc2)NC1=O` [SEQ ID NO. 247] (cyclo([4Pal][Pip(5R-OH)]W[dHyp]N[Phe(4-COOH)][Trp(7-Cl)][αMeS][Phe(4-CONH2)][Phe(4-COOH)][Sar][Trp(βS-Me,7-OMe)][X1][Nle])), the Kd in assay [1] was 0.07 nM; in assay [2] it was 0.09 nM; on human TNFR2 ECD protein, more than 1000 nM.
Consider `C[C@H]1C(=O)N[C@@H](CC(N)=O)C(=O)N[C@@H](Cc2ccncc2)C(=O)N[C@@H](Cc2c[nH]c3ccccc23)C(=O)N[C@@](C)(CO)C(=O)N[C@@H](Cc2ccc(C(=O)O)cc2)C(=O)N[C@@H](Cc2ccc(O)cc2)C(=O)N(C)CC(=O)N[C@@H](Cc2c[nH]c3ccccc23)C(=O)N[C@@H]2C=C[C@@H](C2)C(=O)N[C@@H](CCc2ccccc2)C(=O)N[C@@H](Cc2ccncc2)C(=O)N[C@@H](CO)C(=O)N[C@@H](Cc2c[nH]c3ccccc23)C(=O)N1C` [SEQ ID NO. 248] (cyclo([4Pal]SW[NMeA]N[4Pal]W[αMeS][Phe(4-COOH)]Y[Sar]W[X4][hPhe])), for which the Kd in assay [1] is 2 nM; in assay [2] it was 1.56 nM; on human TNFR2 ECD protein, more than 1000 nM. The same molecule gave an IC50 in assay [2] of 1.45 nM.
For the molecule `CCCC[C@@H]1NC(=O)CSC[C@@H](C(N)=O)NC(=O)[C@H]([C@@H](C)c2c[nH]c3c(OC)cccc23)NC(=O)CN(C)C(=O)[C@H](Cc2ccc(O)cc2)NC(=O)[C@H](Cc2ccc(C(=O)O)cc2)NC(=O)[C@](C)(CO)NC(=O)[C@H](Cc2c[nH]c3c(Cl)cccc23)NC(=O)[C@H](Cc2ccncc2)NC(=O)[C@H](CC(N)=O)NC(=O)[C@H](CCC(=O)O)N(C)C(=O)[C@H](Cc2c[nH]c3ncccc23)NC(=O)[C@H](Cc2cscn2)NC(=O)[C@H](Cc2ccncc2)NC1=O` [SEQ ID NO. 253] ({CH2CO}-[Nle][4Pal][Ala(4-thiazolyl)][Trp(7-aza)][NMeE]N[4Pal][Trp(7-Cl)][αMeS][Phe(4-COOH)]Y[Sar][Trp(βS-Me,7-OMe)]C-NH2; thioether N-14), the values for the Kd (in assay [1]; in assay [2]; on human TNFR2 ECD protein) were 1.09 nM, 1.02 nM and more than 1000 nM, respectively. Moreover, in assay [2], the IC50 stood at 0.77 nM.
For `CN1CC(=O)N[C@@H](Cc2c[nH]c3ccccc23)C(=O)N[C@H](C(N)=O)CSCC(=O)N[C@@H](CCCCN)C(=O)N[C@@H](Cc2ccc(O)cc2)C(=O)N[C@@H](CO)C(=O)N[C@@H](Cc2c[nH]c3ccccc23)C(=O)N2CCC[C@@H]2C(=O)N[C@@H](CCCNC(N)=O)C(=O)N[C@@H](Cc2ccncc2)C(=O)N[C@@H](Cc2c[nH]c3ccccc23)C(=O)N[C@@](C)(CO)C(=O)N[C@@H](Cc2ccc(C(=O)O)cc2)C(=O)N[C@@H](Cc2ccc(O)cc2)C1=O` [SEQ ID NO. 256] ({CH2CO}-KYSW[dP][Cit][4Pal]W[αMeS][Phe(4-COOH)]Y[Sar]WC-NH2; thioether N-14), the figures for the Kd (in assay [1]; on human TNFR2 ECD protein) were 1.4 nM and more than 1000 nM, respectively. This molecule registered an IC50 in assay [2] of 1.84 nM.
Regarding `CCCC[C@@H]1NC(=O)CSC[C@@H](C(N)=O)NC(=O)[C@H]([C@@H](C)c2c[nH]c3c(OC)cccc23)NC(=O)CN(C)C(=O)[C@H](Cc2ccc(O)cc2)NC(=O)[C@H](Cc2ccc(C(=O)O)cc2)NC(=O)[C@](C)(CO)NC(=O)[C@H](Cc2c[nH]c3c(Cl)cccc23)NC(=O)[C@H](Cc2ccncc2)NC(=O)[C@H](CC(N)=O)NC(=O)[C@H](CCC(=O)O)N(C)C(=O)[C@H](Cc2c[nH]c3ncccc23)NC(=O)[C@H](CO)NC(=O)[C@H]([C@H](O)c2ccccc2)NC1=O` [SEQ ID NO. 259] ({CH2CO}-[Nle][Phe(3R-OH)]S[Trp(7-aza)][NMeE]N[4Pal][Trp(7-Cl)][αMeS][Phe(4-COOH)]Y[Sar][Trp(βS-Me,7-OMe)]C-NH2; thioether N-14), the Kd in assay [1] is 0.15 nM; in assay [2], 0.22 nM; on human TNFR2 ECD protein, more than 1000 nM.
Take `C[C@H]1C(=O)N[C@@H](CC(N)=O)C(=O)N[C@@H](Cc2ccncc2)C(=O)N[C@@H](Cc2c[nH]c3ccccc23)C(=O)N[C@@](C)(CO)C(=O)N[C@@H](Cc2ccc(C(=O)O)cc2)C(=O)N[C@@H](CCCNC(=N)N)C(=O)N(C)CC(=O)N[C@@H](Cc2c[nH]c3ccccc23)C(=O)N[C@H](C(N)=O)CSCC(=O)N[C@@H](CCc2ccccc2)C(=O)N[C@@H](Cc2ccc(O)cc2)C(=O)N[C@@H](CO)C(=O)N[C@@H](Cc2c[nH]c3ccccc23)C(=O)N1C` [SEQ ID NO. 260] ({CH2CO}-[hPhe]YSW[NMeA]N[4Pal]W[αMeS][Phe(4-COOH)]R[Sar]WC-NH2; thioether N-14): the Kd was 6 nM in assay [1] and more than 1000 nM at human TNFR2 ECD protein. Moreover, in assay [2], the IC50 turned out to be 10.2 nM.
`CCCC[C@@H]1NC(=O)CSC[C@@H](C(N)=O)NC(=O)[C@H]([C@@H](C)c2c[nH]c3c(OC)cccc23)NC(=O)CN(C)C(=O)[C@H](Cc2ccc(O)cc2)NC(=O)[C@H](Cc2ccc(C(=O)O)cc2)NC(=O)[C@](C)(CO)NC(=O)[C@H](Cc2c[nH]c3c(Cl)cccc23)NC(=O)[C@H](Cc2ccncc2)NC(=O)[C@H](CC(N)=O)NC(=O)[C@H]2C[C@@H](O)CN2C(=O)[C@H](Cc2c[nH]c3ncccc23)NC(=O)[C@@H]2CNCCN2C(=O)[C@H](Cc2ccncc2)NC1=O` [SEQ ID NO. 261] ({CH2CO}-[Nle][4Pal][Pip(4-aza)][Trp(7-aza)][d(cisHyp)]N[4Pal][Trp(7-Cl)][αMeS][Phe(4-COOH)]Y[Sar][Trp(βS-Me,7-OMe)]C-NH2; thioether N-14): the Kd in assay [1] was 0.2 nM; in assay [2] it was 0.3 nM; on human TNFR2 ECD protein it was more than 1000 nM. This molecule also displayed an IC50 in assay [2] of 0.4 nM.
